These results are taken from DBAASP.

Values after ≈ are worked out from the molar mass of the structure shown.

Some test systems named below: Escherichia coli; Listeria innocua; Micrococcus luteus A270; Escherichia coli D31; Staphylococcus aureus MR; Candida albicans; Salmonella typhimurium; Staphylococcus aureus; Escherichia coli BL21; Escherichia coli MG1655.
Holding throughout (assay): ≥ marks a high value that may be exact or a test limit, other limits are often not marked, values filed in µg/mL are converted to µM
For experiment [1], the system named is Bacillus subtilis ATCC 6633.
Experiment [2] has as its system Klebsiella pneumoniae ATCC 27736.
The test system of experiment [3] is Pseudomonas aeruginosa ATCC BAA-427.
Experiment [4] concerns Staphylococcus aureus NCTC 8325.
The subject of experiment [5] is Candida albicans ATCC 90028.
Experiment [6] relates to Escherichia coli ATCC 25922.
Experiment [7] relates to Candida albicans ATCC 10231.
Experiment [8] deals with Pseudomonas aeruginosa ATCC 15442.
Experiment [9] has as its system Pseudomonas aeruginosa PAO1.
Experiment [10] concerns Staphylococcus aureus ATCC 25923.
The subject of experiment [11] is Staphylococcus aureus ATCC 43300.
For experiment [12], the system named is Streptococcus mutans ATCC 25175.
Experiment [13] has as its system Pseudomonas aeruginosa H1001.
The test system of experiment [14] is Micrococcus luteus ATCC 9341.
Experiment [15] concerns Staphylococcus epidermidis.

Usually MIC stands for the smallest concentration in the dilution series that meets the test's criterion for growth inhibition. Read a high MIC as a need for much substance. In the case of `CC(C)[C@H](NC(=O)[C@@H]1CCCN1C(=O)[C@@H](NC(=O)[C@H](Cc1ccccc1)NC(=O)[C@H](CCC(=O)O)NC(=O)[C@H](CCCCN)NC(=O)CNC(=O)[C@H](Cc1ccccc1)NC(=O)[C@H](CC(N)=O)NC(=O)[C@H](CCCN=C(N)N)NC(=O)[C@H](C)N)[C@@H](C)O)C(=O)O` [ARNFGKEFTPV], the MIC with Escherichia coli came out at 12 µM (≈ 15.2 µg/mL); with Listeria innocua, 6 µM (≈ 7.59 µg/mL); against Micrococcus luteus A270 it was 6 µM (≈ 7.59 µg/mL).

For the molecule `CC[C@H](C)[C@H](NC(=O)CNC(=O)[C@H](CCCN=C(N)N)NC(=O)[C@H](Cc1ccccc1)NC(=O)[C@@H](NC(=O)[C@H](Cc1cnc[nH]1)NC(=O)[C@H](Cc1cnc[nH]1)NC(=O)[C@H](Cc1ccccc1)NC(=O)[C@@H](N)Cc1ccccc1)C(C)C)C(=O)N[C@H](C(=O)N[C@@H](Cc1cnc[nH]1)C(=O)N[C@H](C(=O)NCC(=O)N[C@@H](CCCCN)C(=O)N[C@H](C(=O)N[C@H](C(=O)N[C@@H](Cc1cnc[nH]1)C(=O)N[C@@H](CCCN=C(N)N)C(=O)N[C@@H](CC(C)C)C(=O)N[C@H](C(=O)N[C@H](C(=O)NCC(N)=O)[C@@H](C)O)C(C)C)[C@@H](C)CC)[C@@H](C)O)C(C)C)C(C)C` [FFHHVFRGIVHVGKTIHRLVTG], the values for the MIC in experiment [1], in experiment [2] and in experiment [3] were 8 µM (≈ 20.5 µg/mL), 6 µM (≈ 15.3 µg/mL) and 12 µM (≈ 30.7 µg/mL), respectively.

Consider `CC(C)C[C@H](NC(=O)[C@@H](NC(=O)[C@H](CCCCN)NC(=O)[C@H](CO)NC(=O)[C@H](CC(C)C)NC(=O)[C@H](CC(C)C)NC(=O)[C@H](CO)NC(=O)[C@H](C)NC(=O)[C@H](CC(C)C)NC(=O)[C@H](Cc1ccccc1)NC(=O)[C@@H]1CCCN1C(=O)[C@H](CC(C)C)NC(=O)[C@@H](N)Cc1ccccc1)C(C)C)C(N)=O` [FLPFLASLLSKVL], for which the MIC in [4] is ≥ 80 µM.

On to `CC[C@H](C)[C@@H]1NC(=O)[C@H](C)NC(=O)[C@@H](NC(=O)[C@@H](NC(=O)[C@@H](NC(=O)[C@H](CCCCN)NC(=O)[C@H](C)NC(=O)[C@H](C)NC(=O)[C@H](CCSC)NC(=O)CNC(=O)[C@H](C)NC(=O)[C@@H](NC(=O)[C@@H](NC(=O)[C@@H]2CCCN2C(=O)[C@H](CC(C)C)NC(=O)[C@@H](N)Cc2ccccc2)[C@@H](C)CC)[C@@H](C)CC)C(C)C)[C@@H](C)CC)CSSC[C@@H](C(=O)O)NC(=O)[C@H](CCCCN)NC(=O)[C@H](CCCCN)NC(=O)[C@H]([C@@H](C)O)NC1=O` [FLPIIAGMAAKVICAITKKC], for which the MIC came out at 13 µM (≈ 27.2 µg/mL) in experiment [5], 50 µM (≈ 104 µg/mL) in experiment [6] and 6 µM (≈ 12.5 µg/mL) in experiment [4].

On to `CC[C@H](C)[C@H](NC(=O)[C@H](Cc1cnc[nH]1)NC(=O)[C@H](CCC(N)=O)NC(=O)[C@H](CC(C)C)NC(=O)[C@@H](N)Cc1ccccc1)C(=O)N[C@H](C(=O)NCC(=O)N[C@@H](C)C(=O)N[C@@H](CC(C)C)C(=O)NCC(=O)N[C@@H](CCCCN)C(=O)N[C@@H](CC(C)C)C(=O)N[C@@H](Cc1ccccc1)C(N)=O)[C@@H](C)CC` [FLQHIIGALGKLF], for which the MIC in [1] is 25 µM (≈ 36.4 µg/mL); in [7] it was 50 µM (≈ 72.8 µg/mL); in [6] it was 12.5 µM (≈ 18.2 µg/mL); in the experiment on Escherichia coli D31, ≥ 50 µM; in [8], ≥ 50 µM; in experiment [9], > 100 µM. The MIC in experiment [10] is 1.6 µM (≈ 2.33 µg/mL); in [11], 6.2 µM (≈ 9.03 µg/mL); against Staphylococcus aureus MR, 6.2 µM (≈ 9.03 µg/mL); in experiment [12], 6.2 µM (≈ 9.03 µg/mL).

`CC[C@H](C)[C@H](N)C(=O)N[C@@H](CCCCN)C(=O)N[C@@H](CC(C)C)C(=O)N[C@@H](CC(C)C)C(=O)N[C@@H](CS)C(=O)N[C@@H](CCCN=C(N)N)C(=O)N[C@H](C(=O)N[C@@H](Cc1cnc[nH]1)C(=O)N[C@@H](CCCCN)C(=O)N[C@@H](CCCCN)C(=O)O)C(C)C` [IKLLCRVHKK]: in experiment [13], the MIC was 10.1 µM (≈ 12.5 µg/mL).

For `CC[C@H](C)[C@H](N)C(=O)N[C@@H](CC(C)C)C(=O)N1CCC[C@H]1C(=O)N[C@@H](Cc1c[nH]c2ccccc12)C(=O)N[C@@H](CCCCN)C(=O)N[C@@H](Cc1c[nH]c2ccccc12)C(=O)N1CCC[C@H]1C(=O)N[C@@H](Cc1c[nH]c2ccccc12)C(=O)N[C@@H](Cc1c[nH]c2ccccc12)C(=O)N1CCC[C@H]1C(=O)N[C@@H](C)C(=O)N[C@@H](CCCN=C(N)N)C(=O)N[C@@H](CCCN=C(N)N)C(N)=O` [ILPWKWPWWPARR], the minimal inhibitory concentration (MIC) was determined as 0.0045 µM (≈ 0.00806 µg/mL) against Candida albicans; 2.79 µM (≈ 5 µg/mL) against Escherichia coli; 1.6 µM (≈ 2.87 µg/mL) in [14]; 2.79 µM (≈ 5 µg/mL) in the experiment on Salmonella typhimurium; 44.6 µM (≈ 80 µg/mL) against Staphylococcus aureus.

For `NCCCC[C@H](NC(=O)[C@H](Cc1c[nH]c2ccccc12)NC(=O)[C@H](Cc1c[nH]c2ccccc12)NC(=O)[C@@H]1CCCN1C(=O)[C@H](Cc1c[nH]c2ccccc12)NC(=O)[C@@H](N)CCCCN)C(=O)N[C@@H](Cc1c[nH]c2ccccc12)C(=O)N[C@@H](CCCN=C(N)N)C(=O)N[C@@H](CCCN=C(N)N)C(N)=O` [KWPWWKWRR], the MIC in experiment [13] is ≥ 87.5 µM.

As for `CC[C@H](C)[C@H](NC(=O)[C@H](CCCCN)NC(=O)[C@H](CCCCN)NC(=O)[C@H](Cc1cnc[nH]1)NC(=O)[C@@H](NC(=O)[C@H](CCCN=C(N)N)NC(=O)[C@H](CS)NC(=O)[C@H](CC(C)C)NC(=O)[C@@H](N)CC(C)C)C(C)C)C(=O)N[C@@H](C)C(=O)O` [LLCRVHKKIA], in experiment [13], the minimal inhibitory concentration (MIC) was ≥ 42.4 µM.

As to `CC[C@H](C)[C@H](NC(=O)[C@H](CCCCN)NC(=O)[C@H](CCCN=C(N)N)NC(=O)[C@H](CCCCN)NC(=O)[C@H](CCCCN)NC(=O)[C@H](CCCCN)NC(=O)[C@H](Cc1c[nH]c2ccccc12)NC(=O)[C@H](CCCCN)NC(=O)[C@H](CC(C)C)NC(=O)[C@H](Cc1c[nH]c2ccccc12)NC(=O)[C@H](CCCN=C(N)N)NC(=O)[C@H](CC(=O)O)NC(=O)[C@H](CCSC)NC(C)=O)C(=O)N[C@@H](CCCN=C(N)N)C(=O)N[C@@H](CCCN=C(N)N)C(=O)N[C@@H](CCCN=C(N)N)C(=O)N[C@@H](CCCN=C(N)N)C(=O)N[C@@H](CCCN=C(N)N)C(=O)N[C@@H](CCCN=C(N)N)C(=O)N[C@@H](CCCN=C(N)N)C(=O)N[C@@H](CCCN=C(N)N)C(=O)N[C@@H](CCCN=C(N)N)C(=O)N[C@@H](CCCN=C(N)N)C(=O)N[C@@H](CCCN=C(N)N)C(N)=O` [MDRWLKWKKKRKIRRRRRRRRRRR], the figures for the MIC (in the experiment with Escherichia coli BL21; against Escherichia coli MG1655; in experiment [15]) were 6 µM (≈ 21.5 µg/mL), 12 µM (≈ 42.9 µg/mL) and 4 µM (≈ 14.3 µg/mL), respectively.

In [13], `CC[C@H](C)[C@H](NC(=O)[C@H](CCCN=C(N)N)NC(=O)[C@H](CCCN=C(N)N)NC(=O)[C@@H]1CCCN1C(=O)CNC(=O)[C@H](CCCN=C(N)N)NC(=O)[C@@H]1CCCN1C(=O)[C@H](CCCN=C(N)N)NC(=O)[C@@H]1CCCN1C(=O)[C@H](CC(C)C)NC(=O)[C@H](Cc1ccc(O)cc1)NC(=O)[C@@H]1CCCN1C(=O)[C@@H]1CCCN1C(=O)[C@H](CCCCN)NC(=O)[C@H](CC(=O)O)NC(=O)[C@@H](N)C(C)C)C(=O)N[C@@H](Cc1ccc(O)cc1)C(=O)N[C@@H](CC(N)=O)C(=O)N[C@@H](CCCN=C(N)N)C(=O)NCC(=O)O` [VDKPPYLPRPRGPRRIYNRG] yielded an MIC of 0.0872 µM (≈ 0.21 µg/mL).

Turning to `CC[C@H](C)[C@H](NC(=O)[C@H](CCCN=C(N)N)NC(=O)[C@H](CCCN=C(N)N)NC(=O)[C@@H]1CCCN1C(=O)[C@@H]1CCCN1C(=O)[C@H](CCCN=C(N)N)NC(=O)[C@@H]1CCCN1C(=O)[C@H](CCCN=C(N)N)NC(=O)[C@@H]1CCCN1C(=O)[C@H](CC(C)C)NC(=O)[C@H](Cc1ccc(O)cc1)NC(=O)[C@@H]1CCCN1C(=O)[C@@H]1CCCN1C(=O)[C@H](CCCCN)NC(=O)[C@H](CC(=O)O)NC(=O)[C@@H](N)C(C)C)C(=O)N[C@@H](Cc1ccc(O)cc1)C(=O)N[C@@H](CC(N)=O)C(=O)N[C@@H](Cc1cnc[nH]1)C(=O)NCC(=O)O` [VDKPPYLPRPRPPRRIYNHG], in [13], the MIC was 0.123 µM (≈ 0.3 µg/mL).
